Values quoted from earlier work, collected in US6955812B2, “Health food and preparation having an anti-obesity effect” (Mitsubishi Heavy Industries, Ltd., priority 2001, dated 2005).

System: HepG2 cells
Conditions: cultured HepG2 cells of a human liver model; from Japanese patent application No. 2000-202404

In the case of `NC(CO)CS(=O)(=O)O` [D-cysteinolic acid], the “effect on neutral fat (triglyceride)” value is given as “greatly suppressing”.
